Assay results as given in publication PMC12737022, “Evaluations of Sex Differences in Dosimetry in Rats Following Perfluorohexanesulfonamide (PFHxSA) Oral Exposure” (Toxics, 2025).

Assays:
[1] = design: method as in PMID 31078680; details: across both sexes; cited from earlier work
[2] = design: method as in PMID 37756184; details: bariatric surgery patients; cited from earlier work
human hepatocytes = tested on: human hepatocytes; design: method as in Crizer et al. [59]; details: ref Crizer et al. [59]; cited from earlier work
rats = details: cited from earlier work
[3] = Ultracentrifugation plasma protein binding assay, human plasma; type: in vitro ADME
Description: Human and rat plasma were evaluated for plasma protein binding of PFHxSA and PFHxS using ultracentrifugation. Data generated in human plasma were obtained from an earlier study; for this study, data were generated in rat plasma following the same protocol as described by Smeltz et al.. SD rat plasma (pooled, mixed sex) was obtained from a commercial vendor (BioIVT, Westbury, NY, USA). Briefly, PFHxSA and PFHxS were added to the plasma to achieve a final assay concentration of 10 µM. Following a 1 h 37 °C incubation, 1 mL aliquots from each plasma solution were drawn in triplicate and transferred to polycarbonate ultracentrifuge tubes. These samples underwent ultracentrifugation (Beckman OptimaMax; Beckman Coulter Inc., Indianapolis, IN, USA) at 850,000× g for 4 h at 37 °C; after completion, the aqueous fraction (AF) was collected by transferring the supernatant to a new tube. Two sets of samples of the original PFAS-spiked whole plasma were also collected after a 1 h or a 5 h incubation at 37 °C. […]
Intrinsic hepatic clearance (Clint) and fraction unbound in plasma (fup) were calculated from the experimental point estimate data as described in Dobreniecki et al.. […] Renal clearance was calculated using the glomerular filtration rate (a species-dependent constant) and the fraction unbound in blood (fub), estimated by adjusting the experimental fup for blood/plasma partitioning. […]

Sprague Dawley rats [4] = assay: 5-day repeat dose in vivo study, survival; design: species or system rat; details: 0.01 to 100 mg/kg/day oral gavage once daily for five days; both sexes
Excerpt: The plasma and liver samples for this investigation were provided by Mutlu et al.. The study design, including detailed descriptions of animal handling, procedures for dosing, clinical observations, termination, and collection of tissues, is reported elsewhere and is consistent with the ARRIVE guidelines. Briefly, male and female Sprague Dawley (SD) rats (Crl:CD(SD)) (n = 48/sex, 96 total) were purchased from Charles River Laboratory (Raleigh, NC, USA) and allowed to acclimate for ≥5 days before initial dosing. Rats were 8–10 weeks old at the time of exposure. PFHxSA dosing solutions in corn oil were prepared on Day 0 and used over the course of the study. Rats of both sexes (n = 5/sex, dose, and time point, plus eight vehicle controls per sex) were dosed by oral gavage (5 mL/kg body weight) once daily for five days. […] The formulation concentrations decreased from 100 mg/kg/day at half-log10 intervals until the lowest dose level, which was a full log10 interval below the next higher dose, giving eight dose levels (0.01 to 100 mg/kg/day or 0.025 µmol/kg/day to 250 µmol/kg/day) in addition to vehicle controls. Doses were administered in randomized order within ± 1 h on each day of dosing. […] Rats were euthanized 24 h after the last dose. […]

Sprague Dawley rats [5] = assay: Plasma thyroid hormone quantitation after 5-day oral PFHxSA exposure; type: in vivo, rat
Excerpt: The plasma and liver samples for this investigation were provided by Mutlu et al.. The study design, including detailed descriptions of animal handling, procedures for dosing, clinical observations, termination, and collection of tissues, is reported elsewhere and is consistent with the ARRIVE guidelines. Briefly, male and female Sprague Dawley (SD) rats (Crl:CD(SD)) (n = 48/sex, 96 total) were purchased from Charles River Laboratory (Raleigh, NC, USA) and allowed to acclimate for ≥5 days before initial dosing. Rats were 8–10 weeks old at the time of exposure. PFHxSA dosing solutions in corn oil were prepared on Day 0 and used over the course of the study. Rats of both sexes (n = 5/sex, dose, and time point, plus eight vehicle controls per sex) were dosed by oral gavage (5 mL/kg body weight) once daily for five days. […] The formulation concentrations decreased from 100 mg/kg/day at half-log10 intervals until the lowest dose level, which was a full log10 interval below the next higher dose, giving eight dose levels (0.01 to 100 mg/kg/day or 0.025 µmol/kg/day to 250 µmol/kg/day) in addition to vehicle controls. Doses were administered in randomized order within ± 1 h on each day of dosing. […] Rats were euthanized 24 h after the last dose. Blood was collected via cardiac puncture with tripotassium ethylene diamine tetraacetic acid (K3EDTA) as an anti-coagulant and centrifuged to collect cell-free plasma. Liver was collected and flash-frozen in liquid nitrogen. Liver, plasma, and dosing formulation samples were frozen at the USEPA Center for Computational Toxicology and Exposure (CCTE), Durham, NC, USA. Tissue samples (plasma and liver, n = 96 each) were stored at ≤−70 °C prior to extraction; dosing formulation samples (n = 9) were stored at −20 °C.
Thyroid hormones (TH) triiodothyronine (T3), reverse triiodothyronine (rT3), and thyroxine (T4) (SI Table S1) were extracted from plasma spiked with ^13C-labeled TH in batches of up to 96 samples, along with an MB, CCV, and LCS for QC. Gibco (Billings, MT, USA) Dulbecco’s Phosphate-Buffered Saline was used as the control matrix. See SI Text S3 for the extraction procedure.
Samples were analyzed as previously described in O’Shaughnessy et al.. Isotope dilution targeted LC/MS/MS was performed using a Sciex (Framingham, MA, USA) 6500+ QTRAP liquid chromatography/linear ion trap mass spectrometer system operated in positive electrospray ionization (ESI) mode with multiple reaction monitoring (MRM) scanning. A Restek (Bellefonte, PA, USA) Raptor Biphenyl column (100 mm × 2.1 mm, 2.6 µm) was used for chromatographic separation with a flow rate of 0.3 mL/min and a 50 °C column temperature. Gradient elution (see SI Table S2) was obtained with 0.1% formic acid in water (H2O) (mobile phase A) and 0.1% formic acid in methanol (MeOH) (mobile phase B). Detection limits for T3, rT3, and T4 were 0.04 ng/mL in plasma. […]
Acceptance criterion for the ICV was a recovery of ± 20% of the nominal concentration of the ICV as quantitated from the calibration curve. Method blank, CCV, and LCS were injected at the beginning of every extraction batch and reinjected after every 30 samples to confirm the validity of the calibration curve and sample quantitation. If fewer than 30 samples were injected, all samples were bracketed by injections of the CCV at the beginning and end of the analysis batch.
Acceptance criteria for the CCV and LCS were ± 30% of nominal concentration. Method blanks were acceptable with PFHxSA signal < 0.5x the LOQ. Samples were injected in order of increasing dose.
Quantitation of PFHxS in liver and plasma was performed using the same QC criteria and extraction methods as PFHxSA, only the internal standard was supplied in the form of a Wellington Laboratories isotopically labeled MPFAC-24ES PFAS mixture containing 13C3-PFHxS. Samples were quantitated against PFHxS matrix-matched calibration curves containing a minimum of 5 points spanning the range […]

[6] = tested on: cytochrome P450 (CYP450) hepatic metabolism enzyme isoforms 3A2, 4A1, and 2J4; design: method as in Mutlu et al. [55]; details: ref Mutlu et al. [55], cited from earlier work

| Compound | Liver partitioning summary values [1] | Human liver/plasma partitioning Kp [2] | Clhep (hepatic clearance) (human hepatocytes) | Doses at which transcriptional pathway changes are observed in multiple tissues (rats) | Benchmark dose for relative liver weight changes (rats; rats, ref Auerbach et al. [40]) | Exposures at which mortality was observed in a 5-day study (rats; ref Auerbach et al. [40]) | Plasma binding of PFHxSA higher than PFHxS [3] | Survival (Sprague Dawley rats [4]) | rT3 in female rat plasma (Sprague Dawley rats [5]; all doses) | rT3 in male rat plasma (Sprague Dawley rats [5]; detected sporadically) | Dose with plasma T4 statistically different from controls (Sprague Dawley rats [5]; female rats) | Dose with plasma T3 statistically different from controls (Sprague Dawley rats [5]; male and female rats) | Dose from which plasma T4 was significantly decreased (Sprague Dawley rats [5]; male rats) | Exposures at which changes in THs occur (Sprague Dawley rats [5]; rats) | Increase in mRNAs of CYP450 isoforms 3A2, 4A1, and 2J4 ([6]; rat liver) | Lowest observed transcriptional effect level, CYP450 isoforms 3A2, 4A1, and 2J4 [6] |
| --- | --- | --- | --- | --- | --- | --- | --- | --- | --- | --- | --- | --- | --- | --- | --- | --- |
| O=S(=O)(O)C(F)(F)C(F)(F)C(F)(F)C(F)(F)C(F)(F)C(F)(F)F [PFHxS, perfluorohexane sulfonic acid] | 0.16–0.44 | 0.12 | 0 ^2 L/h |  |  |  |  |  |  |  |  |  |  |  |  |  |
| NS(=O)(=O)C(F)(F)C(F)(F)C(F)(F)C(F)(F)C(F)(F)C(F)(F)F [PFHxSA, Perfluorohexanesulfonamide] |  |  | 0 ^2 L/h | less than 1 mg/kg/day | 16.25 mg/kg/day | above 100 mg/kg/d | 2.25 fold | All rats survived to termination | not detected | no dose-responsive effect | 100 mg/kg/day | 100 mg/kg/day | 10 mg/kg/day | ≥ 10 mg/kg/day | ≥ 2 fold | 30 mg/kg/day |
